In patent US7838288B2, “Modulators of odorant receptors” (Duke University, priority 2004, dated 2010):
Entries after “also recorded” stand apart in the source; their conditions may differ.

Tests used:
[1] = test system: olfactory neurons S6 and S79; settings: previous studies (Malnic 1999); cited from earlier work
OR-S6/S79 = test: CRE-luciferase reporter gene assay, OR-S6/S79; assay type: cell-based, mouse; settings: Hana3A cells
Procedure: Four ORs (S6/79, S18, S46 and S50) previously assayed using other techniques (see, e.g., Malnic, B., et al. (1999) Cell 96, 713-723; herein incorporated by reference in its entirety) were tested against an assay panel of aliphatic alcohols, aldehydes and acids and some other odorants. Additionally, five “orphan” class I ORs (MOR23-1, MOR31-4, MOR31-6, MOR32-5 and MOR32-11) whose cognate ligands were unknown were tested. At a suprathreshold concentration of 100 uM, all these ORs were odorant selective, responding to only a small subset of the odorants tested (see FIG. 11A). This specificity was retained at lower, more physiologically relevant concentrations. Many of these ORs responded to odorants present in micromolar concentrations. The cell-surface expression of these ORs by living-cell immunofluorescence were evaluated. Some ORs (S18, MOR31-4, MOR31-6 and MOR32-5) were strongly expressed while other ORs (S6, S50, MOR23-1, MOR32-11) were weakly expressed (see FIG. 12). The present invention is not limited to a particular mechanism. Indeed, an understanding of the mechanism is not necessary to practice the present invention. […] Finally, two additional orphan class II ORs, MOR203-1 and olfr62, were tested against a panel of 139 odorants. […] Olfr62 responded to coumarine and piperonal (see FIG. 11C). […] When parental 293T cells for these ORs were used in this luciferase assay, little or no response to the odorants was observed. The present invention is not limited to a particular mechanism. Indeed, an understanding of the mechanism is not necessary to practice the present invention.
An expression system has been established that permits rapid identification of ligands for ORs. This system was tested with twelve ORs. Four of the tested ORs (S6/S79, S18, S46, and S50) were expressed in single olfactory neurons responding to aliphatic odorants (see, e.g., Malnic, B., et al. (1999) Cell 96, 713-723; herein incorporated by reference in its entirety). The response profiles of OR-S50, but not that of OR-S18 agreed with the previous report (see, e.g., Malnic, B., et al. (1999) Cell 96, 713-723; herein incorporated by reference in its entirety). […] In experiments conducted during the course of the present invention, OR-S6/S79 responded to nonanedioic acid but not to heptanoic acid or octanoic acid. The present invention is not limited to a particular mechanism. […] When multiple single olfactory neurons that expressed the same OR were recorded against the same set of odorants using calcium imaging, their response profiles were similar but different (see, e.g., Bozza, T., et al. (2002) J Neurosci 22, 3033-3043; herein incorporated by reference in its entirety).
(§1) Dual-Glo system (Promega) for luciferase assay was used. […] Luminescence was measured using Wallac Victor 1420 (Perkin-Elmer). […]

OR-S50 = test: CRE-luciferase reporter gene assay, OR-S50; assay type: cell-based, mouse
Description: (§2) To facilitate analysis of odorant-OR interactions, 293T cell lines were established which stably express REEP1, RTP1, RTP2 and Gαolf, the G protein alpha subunit that couples to OR (see, e.g., Belluscio, L., et al. (1998) Neuron 20, 69-81; Jones, D. T., and Reed, R. R. (1989). Science 244, 790-795; each herein incorporated by reference in their entireties). To establish such cells, linearized expression vectors containing mouse REEP1, RTP1, RTP2 and Gαolf ORFs were transfected into 293T cells with PGK-Pac (puromycin resistant gene) (see, e.g., Watanabe, S., et al. (1995) Biochem Biophys Res Commun 213, 130-137; herein incorporated by reference in its entirety). […] Enhanced cell-surface expression was observed when OREG or other ORs were transfected in Hana3A cells and immunostained (see FIG. 10). […] Expression of Gαolf alone in 293T cells had little or no effect on OR activation using this assay.
(§3) Dual-Glo system (Promega) for luciferase assay was used. CRE-Luciferase (Stratagene) was used to measure the receptor activities. […] Luminescence was measured using Wallac Victor 1420 (Perkin-Elmer). Normalized luciferase activity was calculated as [Luc (N)-Luc (0)]/RL (N), where Luc (N)=Luminescent count of a certain well, Luc (0)=Luminescent count without odorant for each OR, and RL (N)=Luminescent count of Renilla Luciferase of each well. […]

[2] = target: T1, mouse odorant receptor OREG (Mus musculus, UniProt Q920P2); test: CRE-luciferase reporter gene assay, OREG; assay type: cell-based
T1 construct: expressed in transfected cells; host or cells: 293T cells (with or without co-transfected REEP1/RTP1/RTP2) and Hana3A cells (293T stably expressing mouse REEP1, RTP1, RTP2, Galpha-olf)
T1 sequence (Q920P2 1-313): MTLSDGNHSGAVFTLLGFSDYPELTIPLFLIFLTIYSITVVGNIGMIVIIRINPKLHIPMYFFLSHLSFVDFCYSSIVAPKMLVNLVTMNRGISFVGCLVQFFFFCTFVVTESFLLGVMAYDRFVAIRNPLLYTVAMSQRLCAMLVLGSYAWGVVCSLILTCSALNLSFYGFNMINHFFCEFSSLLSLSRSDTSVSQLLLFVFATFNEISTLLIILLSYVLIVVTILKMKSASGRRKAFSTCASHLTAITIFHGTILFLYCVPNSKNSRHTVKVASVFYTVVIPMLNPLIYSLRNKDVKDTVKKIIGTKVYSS
Description: Poor odorant evoked signaling activity in heterologous cell culture systems expressing ORs has been attributed to the poor cell surface expression of ORs. The identification of REEP and/or RTP allowed a direct assessment of this issue. A luciferase reporter gene assay was employed in which a cAMP responsive element (CRE) mediated luciferase gene expression (see FIG. 8A). Because OR activation leads to an increase in cAMP, activation of the mouse odorant receptor OREG by its ligand eugenol was measured in the presence and absence of REEP and/or RTP (see, e.g., Kajiya, K., et al. (2001) J Neurosci 21, 6018-6025; Touhara, K., et al., (1999) Proc Natl Acad Sci USA 96, 4040-4045; each herein incorporated by reference in their entireties). As reported previously, eugenol increased levels of OREG dependent luciferase activity (see, e.g., Katada, S., et al. (2003) Biochem Biophys Res Commun 305, 964-969; herein incorporated by reference in its entirety).
as §2
Dual-Glo system (Promega) for luciferase assay was used. CRE-Luciferase (Stratagene) was used to measure the receptor activities. Renilla luciferase driven by constitutively active SV40 promoter (pRL-SV40: Promega) was used as an internal control. Cells were plated on poly-D-lysine coated 96 well plates (BIOCOAT, Beckton Dickinson). After 8 hours (for experiments shown in FIGS. 8B and 8C) or 12 hours (for experiments shown in FIG. 8D and FIG. 11) after transfection, the medium was replaced with CD293 chemically defined medium (Invitrogen) and the plates were incubated for one hour at 37 degrees C. The medium was replaced with 50 ul of odorant solutions dissolved in CD293 and incubated for 10 hours (for experiments shown in FIGS. 8B and 8C) or 4 hours (for experiments shown in FIG. 8D and FIG. 11) at 37 degrees C. The manufacture's protocol for measuring luciferase and Renilla luciferase activities was followed. Luminescence was measured using Wallac Victor 1420 (Perkin-Elmer). Normalized luciferase activity was calculated as [Luc (N)-Luc (0)]/RL (N), where Luc (N)=Luminescent count of a certain well, Luc (0)=Luminescent count without odorant for each OR, and RL (N)=Luminescent count of Renilla Luciferase of each well. For cAMP assays, cells were plated onto 24-well plate. […]. Prism software (Graphpad) was used for data analysis.

OREG = target: T2, OREG (Mus musculus, UniProt Q920P2); test: cAMP assay, OREG; assay type: cell-based; settings: OREG transfected; Hana3A cells vs 293T cells expressing Gαolf
T2 construct: expressed in transfected cells; host or cells: Hana3A cells, or HEK293T cells co-transfected with Golf
T2 sequence (Q920P2 1-313): T1 sequence (Q920P2 1-313)
Procedure: In order to confirm the increased OR function in the presence of REEP1, RTP1 and RTP2, the amount of cAMP upon ligand stimulation was measured using 293T cells expressing Gαolf and Hana3A cells. […] In contrast, when the β2 adrenergic receptor was expressed and isoproterenol was used, no significant differences in cAMP production were observed (see FIG. 8E). The present invention is not limited to a particular mechanism. Indeed, an understanding of the mechanism is not necessary to practice the present invention. Nonetheless, this further supports a specific role of the accessory proteins in functional OR expression.
as §3, with “activities. Renilla luciferase driven by constitutively active SV40 promoter (pRL-SV40: Promega) was used as an internal control. Cells were plated on poly-D-lysine coated 96 well plates (BIOCOAT, Beckton Dickinson).” for “activities.”

OR-S46 = test: CRE-luciferase reporter gene assay, OR-S46; assay type: cell-based, mouse; settings: Hana3A cells
Description: To facilitate analysis of odorant-OR interactions, 293T cell lines were established which stably express REEP1, RTP1, RTP2 and Gαolf, the G protein alpha subunit that couples to OR (see, e.g., Belluscio, L., et al. (1998) Neuron 20, 69-81; Jones, D. T., and Reed, R. R. (1989). Science 244, 790-795; each herein incorporated by reference in their entireties). To establish such cells, linearized expression vectors containing mouse REEP1, RTP1, RTP2 and Gαolf ORFs were transfected into 293T cells with PGK-Pac (puromycin resistant gene) (see, e.g., Watanabe, S., et al. (1995) Biochem Biophys Res Commun 213, 130-137; herein incorporated by reference in its entirety). […] Enhanced cell-surface expression was observed when OREG or other ORs were transfected in Hana3A cells and immunostained (see FIG. 10). […]
Four ORs (S6/79, S18, S46 and S50) previously assayed using other techniques (see, e.g., Malnic, B., et al. (1999) Cell 96, 713-723; herein incorporated by reference in its entirety) were tested against an assay panel of aliphatic alcohols, aldehydes and acids and some other odorants. […] The cell-surface expression of these ORs by living-cell immunofluorescence were evaluated. […]
as §1

MOR23-1 = test: CRE-luciferase reporter gene assay, MOR23-1; assay type: cell-based, mouse; settings: Hana3A cells
Procedure: (§4) Four ORs (S6/79, S18, S46 and S50) previously assayed using other techniques (see, e.g., Malnic, B., et al. (1999) Cell 96, 713-723; herein incorporated by reference in its entirety) were tested against an assay panel of aliphatic alcohols, aldehydes and acids and some other odorants. Additionally, five “orphan” class I ORs (MOR23-1, MOR31-4, MOR31-6, MOR32-5 and MOR32-11) whose cognate ligands were unknown were tested. At a suprathreshold concentration of 100 uM, all these ORs were odorant selective, responding to only a small subset of the odorants tested (see FIG. 11A). This specificity was retained at lower, more physiologically relevant concentrations. Many of these ORs responded to odorants present in micromolar concentrations. The cell-surface expression of these ORs by living-cell immunofluorescence were evaluated. Some ORs (S18, MOR31-4, MOR31-6 and MOR32-5) were strongly expressed while other ORs (S6, S50, MOR23-1, MOR32-11) were weakly expressed (see FIG. 12). […]
as §3, with “used.” for “used. CRE-Luciferase (Stratagene) was used to measure the receptor activities.”

MOR203-1 = test: CRE-luciferase reporter gene assay, MOR203-1; assay type: cell-based, mouse; settings: Hana3A cells
Procedure: as §4
as §3, with “used.” for “used. CRE-Luciferase (Stratagene) was used to measure the receptor activities.”

MOR31-4 = test: CRE-luciferase reporter gene assay, MOR31-4; assay type: cell-based, mouse; settings: Hana3A cells
Procedure: as §4
as §3, with “used.” for “used. CRE-Luciferase (Stratagene) was used to measure the receptor activities.”

## O=C(O)CCCCCCCC(=O)O [nonanedioic acid]
[1]
  response of single olfactory neurons S6 and S79 to odorant: both responded
OR-S6/S79
  response of OR-S6/S79 to odorant (luciferase): responded
OR-S50; OR-S50 in 293T cells
  luciferase response: did not produce a luciferase response
OR-S50; OR-S50 in Hana3A cells
  luciferase activity: robust luciferase activity

## C=CCc1ccc(O)c(OC)c1 [eugenol, reference compound]
[2]; HA-OREG in 293T cells
  luciferase induction: Little luciferase induction was observed
[2]; HA-OREG in Hana3A cells
  luciferase activity: an enhancement in luciferase activity was observed
[2]; odorant applied, OREG in 293T cells with or without REEP and/or RTP
  OREG dependent luciferase activity: increased
OREG
  cAMP production: Enhanced cAMP production; also recorded: more cAMP was produced

## CCCCCCC(=O)O [heptanoic acid, Heptanoic acid]
[1]
  response of single olfactory neurons S6 and S79 to odorant: only the olfactory neuron S79 responded
OR-S6/S79
  response of OR-S6/S79 to odorant (luciferase): not

## CCCCCCCCC(=O)O [nonanoic acid, Nonanoic acid]
OR-S46
  response of S46 to odorant (luciferase): responded
MOR23-1
  response of MOR23-1 to odorant (luciferase): responded
MOR203-1
  response of MOR203-1 to odorant (luciferase): responded to high concentrations
MOR31-4
  response of MOR31-4 to odorant (luciferase): responded

## CCCCCCCC(=O)O [octanoic acid]
[1]
  response of single olfactory neurons S6 and S79 to odorant: only the olfactory neuron S79 responded
OR-S6/S79
  response of OR-S6/S79 to odorant (luciferase): not
